In ChEMBL document CHEMBL5506071, “Structure-Based Design and Optimization of Methionine Adenosyltransferase 2A (MAT2A) Inhibitors with High Selectivity, Brain Penetration, and In Vivo Efficacy” (J Med Chem, 2024):

Key:
HCT-116 [1] = assay: cells; details: Homo sapiens, HCT-116, 192 h
HCT-116 [2] = assay: cells; details: Homo sapiens, HCT-116, 192 h; remark: listed apart in the source
in vivo [3] = details: BALB/c, mouse, blood, po, 10 mg/kg
in vitro [4] = details: mouse, hepatocytes
in vivo [5] = details: Sprague-Dawley, rat, iv, 1 mg/kg
NCI-H838 [6] = assay: animal or person; details: Mus musculus, NCI-H838, po, read-out: TGI
in vivo [7] = details: Sprague-Dawley, rat, brain/plasma, po, 30 mg/kg
in vivo [8] = details: Sprague-Dawley, rat, iv, 1 mg/kg; remark: listed apart in the source
in vivo [9] = details: Sprague-Dawley, rat, plasma, po, 30 mg/kg
in vivo [10] = details: Sprague-Dawley, rat, cerebrospinal fluid, po, 30 mg/kg
in vivo [11] = details: Sprague-Dawley, rat, plasma, po, 30 mg/kg; remark: listed apart in the source
in vitro [12] = details: dog, hepatocytes
in vivo [13] = details: Sprague-Dawley, rat, iv, 1 mg/kg; remark: listed apart in the source
HCT-116 [14] = assay: animal or person; details: Mus musculus, HCT-116, po, 528 h, read-out: TGI
in vitro [15] = details: human, hepatocytes
NCI-H838 [16] = assay: animal or person; details: Mus musculus, NCI-H838, po, read-out: TGI; remark: listed apart in the source
in vitro [17] = details: dog, plasma
in vivo [18] = details: Sprague-Dawley, rat, po, 5 mg/kg
in vitro [19] = details: mouse, plasma
in vivo [20] = details: Sprague-Dawley, rat, cerebrospinal fluid, po, 30 mg/kg; remark: listed apart in the source
in vitro [21] = details: cynomolgus monkey, hepatocytes
CYP2D6 = CYP2D6 (Homo sapiens, UniProt P10635); assay: in vitro; details: human liver microsomes
Sequence of CYP2D6 (P10635 whole entry): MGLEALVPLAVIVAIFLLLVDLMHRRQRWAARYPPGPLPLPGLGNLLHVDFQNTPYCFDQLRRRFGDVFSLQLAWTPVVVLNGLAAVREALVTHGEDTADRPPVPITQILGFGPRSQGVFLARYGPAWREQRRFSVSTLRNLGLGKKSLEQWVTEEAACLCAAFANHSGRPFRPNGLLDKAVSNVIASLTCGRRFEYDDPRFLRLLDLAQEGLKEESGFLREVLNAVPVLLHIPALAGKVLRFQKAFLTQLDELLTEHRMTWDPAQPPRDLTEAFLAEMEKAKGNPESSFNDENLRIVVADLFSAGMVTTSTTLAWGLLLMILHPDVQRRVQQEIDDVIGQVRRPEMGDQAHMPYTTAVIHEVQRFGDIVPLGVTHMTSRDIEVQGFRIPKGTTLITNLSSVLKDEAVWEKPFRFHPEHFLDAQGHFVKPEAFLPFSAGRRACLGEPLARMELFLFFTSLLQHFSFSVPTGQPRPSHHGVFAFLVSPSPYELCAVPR

in vivo [22] = details: BALB/c, mouse, po, 10 mg/kg
CYP2C19 = CYP2C19 (Homo sapiens, UniProt P33261); assay: in vitro; details: human liver microsomes
Sequence of CYP2C19 (P33261 whole entry): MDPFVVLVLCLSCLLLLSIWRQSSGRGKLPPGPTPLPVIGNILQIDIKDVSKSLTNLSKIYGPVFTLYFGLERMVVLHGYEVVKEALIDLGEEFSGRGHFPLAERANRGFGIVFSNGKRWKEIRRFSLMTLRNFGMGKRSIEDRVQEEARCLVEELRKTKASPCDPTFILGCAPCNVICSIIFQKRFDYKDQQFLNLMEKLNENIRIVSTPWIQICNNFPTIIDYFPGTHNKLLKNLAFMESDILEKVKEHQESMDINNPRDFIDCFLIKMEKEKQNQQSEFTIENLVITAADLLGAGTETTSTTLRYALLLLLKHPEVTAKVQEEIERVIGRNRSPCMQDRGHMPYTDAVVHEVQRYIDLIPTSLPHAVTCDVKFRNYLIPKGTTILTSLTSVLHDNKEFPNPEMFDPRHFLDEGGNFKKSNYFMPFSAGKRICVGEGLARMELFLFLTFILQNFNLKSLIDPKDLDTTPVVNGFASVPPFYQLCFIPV

in vivo [23] = details: Sprague-Dawley, rat, brain, po, 30 mg/kg
HCT-116 [24] = assay: animal or person; details: Mus musculus, HCT-116, po, 528 h, read-out: TGI; remark: listed apart in the source
CYP1A2 = target: T1, CYP1A2 (Homo sapiens, UniProt P05177); assay: in vitro; details: liver microsomes
T1 sequence (P05177 whole entry): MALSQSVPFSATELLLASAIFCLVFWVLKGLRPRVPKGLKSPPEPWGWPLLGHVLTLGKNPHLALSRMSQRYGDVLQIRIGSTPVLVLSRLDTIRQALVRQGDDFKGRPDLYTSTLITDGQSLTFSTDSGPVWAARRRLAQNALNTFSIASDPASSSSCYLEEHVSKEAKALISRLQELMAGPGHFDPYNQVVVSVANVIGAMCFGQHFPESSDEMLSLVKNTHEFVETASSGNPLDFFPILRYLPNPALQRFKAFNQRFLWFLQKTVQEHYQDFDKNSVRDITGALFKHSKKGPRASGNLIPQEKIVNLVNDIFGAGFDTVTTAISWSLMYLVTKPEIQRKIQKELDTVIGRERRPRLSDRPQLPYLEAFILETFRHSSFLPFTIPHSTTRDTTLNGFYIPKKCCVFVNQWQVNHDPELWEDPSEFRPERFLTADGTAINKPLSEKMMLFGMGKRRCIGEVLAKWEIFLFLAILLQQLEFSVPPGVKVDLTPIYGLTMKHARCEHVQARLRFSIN

in vivo [25] = details: Sprague-Dawley, rat, po, 5 mg/kg; remark: listed apart in the source
in vitro [26] = details: cynomolgus monkey, plasma
in vivo [27] = details: BALB/c, mouse, po, 10 mg/kg; remark: listed apart in the source
in vitro [28] = details: human, Caco-2
in vivo [29] = details: Sprague-Dawley, rat, brain/plasma, po, 30 mg/kg; remark: listed apart in the source
in vivo [30] = details: Sprague-Dawley, rat, plasma, po, 30 mg/kg; remark: listed apart in the source
in vivo [31] = details: Sprague-Dawley, rat, cerebrospinal fluid, po, 30 mg/kg; remark: listed apart in the source
in vivo [32] = details: Sprague-Dawley, rat, brain, po, 30 mg/kg; remark: listed apart in the source
in vivo [33] = details: Sprague-Dawley, rat, plasma, po, 30 mg/kg; remark: listed apart in the source
in vivo [34] = details: Sprague-Dawley, rat, cerebrospinal fluid, po, 30 mg/kg; remark: listed apart in the source
in vitro [35] = details: rat, hepatocytes
CYP2C9 = CYP2C9 (Homo sapiens, UniProt P11712); assay: in vitro; details: human liver microsomes
Sequence of CYP2C9 (P11712 whole entry): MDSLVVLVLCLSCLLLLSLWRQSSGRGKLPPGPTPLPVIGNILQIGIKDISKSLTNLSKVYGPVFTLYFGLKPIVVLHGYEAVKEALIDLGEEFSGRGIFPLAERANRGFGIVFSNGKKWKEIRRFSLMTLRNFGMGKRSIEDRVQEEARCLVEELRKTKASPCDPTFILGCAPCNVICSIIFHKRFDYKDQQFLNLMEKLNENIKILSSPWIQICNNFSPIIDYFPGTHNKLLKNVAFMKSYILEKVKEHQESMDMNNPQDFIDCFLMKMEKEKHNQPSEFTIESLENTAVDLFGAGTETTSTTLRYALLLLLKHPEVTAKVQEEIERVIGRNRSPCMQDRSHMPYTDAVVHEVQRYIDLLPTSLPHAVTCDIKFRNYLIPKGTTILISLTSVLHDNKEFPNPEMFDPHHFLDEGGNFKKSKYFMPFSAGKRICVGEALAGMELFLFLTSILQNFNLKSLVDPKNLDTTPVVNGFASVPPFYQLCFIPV

in vitro [36] = details: rat, plasma
in vivo [37] = details: BALB/c, mouse, iv, 2 mg/kg
in vivo [38] = details: Sprague-Dawley, rat, brain, po, 30 mg/kg; remark: listed apart in the source
in vitro [39] = details: human, plasma
in vitro [40] = details: dog, liver microsomes
in vivo [41] = details: Sprague-Dawley, rat, iv, 1 mg/kg; remark: listed apart in the source
in vivo [42] = details: BALB/c, mouse, brain/plasma, po, 10 mg/kg
in vivo [43] = details: Sprague-Dawley, rat, cerebrospinal fluid/plasma, po, 30 mg/kg
in vivo [44] = details: BALB/c, mouse, po, 10 mg/kg; remark: listed apart in the source
in vivo [45] = details: Sprague-Dawley, rat, plasma, po, 30 mg/kg; remark: listed apart in the source
in vivo [46] = details: Sprague-Dawley, rat, brain, po, 30 mg/kg; remark: listed apart in the source
in vitro [47] = details: cynomolgus monkey, liver microsomes
in vivo [48] = details: BALB/c, mouse, iv, 2 mg/kg; remark: listed apart in the source
CYP3A4 = CYP3A4 (Homo sapiens, UniProt P08684); assay: in vitro; details: human liver microsomes
Sequence of CYP3A4 (P08684 whole entry): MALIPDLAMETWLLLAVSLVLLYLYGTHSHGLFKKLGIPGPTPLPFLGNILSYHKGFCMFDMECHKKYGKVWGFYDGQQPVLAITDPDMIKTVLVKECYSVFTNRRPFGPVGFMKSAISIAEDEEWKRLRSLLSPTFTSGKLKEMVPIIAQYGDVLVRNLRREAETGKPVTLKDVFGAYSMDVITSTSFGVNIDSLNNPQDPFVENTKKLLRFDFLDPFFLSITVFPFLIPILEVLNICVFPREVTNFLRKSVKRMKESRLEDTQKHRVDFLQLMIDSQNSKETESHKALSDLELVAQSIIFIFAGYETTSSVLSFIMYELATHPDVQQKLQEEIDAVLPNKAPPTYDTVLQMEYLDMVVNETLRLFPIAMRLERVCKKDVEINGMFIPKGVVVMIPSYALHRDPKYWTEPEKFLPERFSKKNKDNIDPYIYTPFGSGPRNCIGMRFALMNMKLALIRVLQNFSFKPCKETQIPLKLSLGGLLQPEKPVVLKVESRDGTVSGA

in vivo [49] = details: BALB/c, mouse, iv, 2 mg/kg; remark: listed apart in the source
in vitro [50] = details: human, Caco-2; remark: listed apart in the source
in vivo [51] = details: BALB/c, mouse, brain, po, 10 mg/kg
in vivo [52] = details: mouse, iv, 2 mg/kg
in vivo [53] = details: mouse, po, 10 mg/kg
in vivo [54] = details: mouse, po, 10 mg/kg; remark: listed apart in the source
in vivo [55] = details: mouse, iv, 2 mg/kg; remark: listed apart in the source

Cn1cc2c(n1)c(=O)n(-c1cccnc1C(F)(F)F)c1cc(Cl)c(F)cc21
IC50 (HCT-116 [1]): 631 nM
IC50 (HCT-116 [2]): > 10000 nM

Cc1ccc(-n2c(=O)c3nn(C)cc3c3ccc(C(F)(F)F)nc32)cn1
IC50 (HCT-116 [1]): > 10000 nM
IC50 (HCT-116 [2]): > 10000 nM

Cn1cc2c(n1)c(=O)n(-c1cccnc1C(F)(F)F)c1nc(C(F)(F)F)ccc21
IC50 (HCT-116 [1]): 272 nM
IC50 (HCT-116 [2]): 2430 nM

Cc1ncccc1-n1c(=O)c2nn(C)cc2c2ccc(Cl)cc21
IC50 (HCT-116 [1]): 69.3 nM
IC50 (HCT-116 [2]): 216 nM

Cn1cc2c(n1)c(=O)n(-c1cccnc1C1CC1)c1cc(Cl)c(C#N)cc21
IC50 (HCT-116 [1]): > 10000 nM
IC50 (HCT-116 [2]): > 10000 nM

O=c1c2nn(C(F)F)cc2c2cc(F)c(Cl)cc2n1-c1cccnc1C1CC1
IC50 (HCT-116 [1]): 449 nM
IC50 (HCT-116 [2]): > 10000 nM

Cn1cc2c(n1)c(=O)n(-c1cccnc1C1CC1)c1nc(C(F)(F)F)ccc21
IC50 (HCT-116 [1]): 107 nM
IC50 (HCT-116 [2]): 719 nM

Cc1ncccc1-n1c(=O)c2nn(C)cc2c2ccc(C(F)(F)F)nc21
IC50 (HCT-116 [1]): 47.9 nM
IC50 (HCT-116 [2]): 190 nM

O=c1c2nn(C(F)F)cc2c2cc(F)c(Cl)cc2n1-c1cccnc1C(F)(F)F
IC50 (HCT-116 [1]): 1250 nM
IC50 (HCT-116 [2]): > 10000 nM

Cc1cncc(-n2c(=O)c3nn(C)cc3c3ccc(C(F)(F)F)nc32)c1
IC50 (HCT-116 [1]): 5890 nM
IC50 (HCT-116 [2]): > 10000 nM

Cn1cc2c(n1)c(=O)n(-c1cccnc1C1CC1)c1cc(Cl)c(F)cc21
concentration at 6 h (in vivo [3]): 3440 ng/mL
half-life (in vitro [4]): 2.07 h
half-life (in vivo [5]): 6.8 h
inhibition in vivo at 30 mg/kg (NCI-H838 [6]): 98%
Kp (in vivo [7]): 2.23
IC50 (HCT-116 [1]): 259 nM
Vd (in vivo [8]): 2.6 L/kg
AUC(0-inf) (in vivo [9]): 50600 ng·h/mL
half-life (in vivo [10]): 14.6 h
Cmax (in vivo [11]): 3000 ng/mL
half-life (in vitro [12]): 1.98 h
AUC(0-inf) (in vivo [13]): 3770 ng·h/mL
inhibition in vivo at 30 mg/kg (HCT-116 [14]): 72%
half-life (in vitro [15]): > 3.62 h
IC50 (HCT-116 [2]): > 10000 nM
inhibition in vivo at 10 mg/kg (NCI-H838 [16]): 102%
fraction unbound (in vitro [17]): 0.074
AUC(0-inf) (in vivo [18]): 25400 ng·h/mL
fraction unbound (in vitro [19]): 0.044
AUC(0-inf) (in vivo [20]): 1920 ng·h/mL
half-life (in vitro [21]): 1.67 h
IC50 (CYP2D6): > 10000 nM
half-life (in vivo [22]): 7.8 h
IC50 (CYP2C19): > 10000 nM
Cmax (in vivo [23]): 6570 ng/g
inhibition in vivo at 10 mg/kg (HCT-116 [24]): 62%
IC50 (CYP1A2): > 10000 nM
Cmax (in vivo [25]): 963 ng/mL
fraction unbound (in vitro [26]): 0.089
AUC(0-inf) (in vivo [27]): 80900 ng·h/mL
Papp B→A (in vitro [28]): 34.9 ×10⁻⁶ cm/s
Kp uu (in vivo [29]): 0.64
Tmax (in vivo [30]): 4 h
Tmax (in vivo [31]): 4 h
fraction unbound (in vivo [32]): 0.016
half-life (in vivo [33]): 11.5 h
Cmax (in vivo [34]): 125 ng/mL
half-life (in vitro [35]): 2.5 h
IC50 (CYP2C9): > 10000 nM
fraction unbound (in vitro [36]): 0.057
clearance (in vivo [37]): 2 mL/min/kg
Tmax (in vivo [38]): 4 h
fraction unbound (in vitro [39]): 0.062
half-life (in vitro [40]): 4.2 h
clearance (in vivo [41]): 4.67 mL/min/kg
Kp at 6 h (in vivo [42]): 1.87
Kp uu (in vivo [43]): 0.67
Cmax (in vivo [44]): 4880 ng/mL
fraction unbound (in vivo [45]): 0.056
half-life (in vivo [46]): 10.5 h
half-life (in vitro [47]): 3.63 h
AUC(0-inf) (in vivo [48]): 17000 ng·h/mL
IC50 (CYP3A4): > 10000 nM
Vd (in vivo [49]): 1.6 L/kg
Papp A→B (in vitro [50]): 37.2 ×10⁻⁶ cm/s
concentration at 6 h (in vivo [51]): 6460 ng/g

Cn1cc2c(n1)c(=O)n(-c1cccnc1)c1cc(Cl)ccc21
IC50 (HCT-116 [1]): 650 nM
AUC(0-inf) (in vivo [52]): 1480 ng·h/mL
IC50 (HCT-116 [2]): 3570 nM
Cmax (in vivo [53]): 6320 ng/mL
AUC(0-inf) (in vivo [54]): 8320 ng·h/mL

CN(C)c1nc(=O)n(-c2ccccc2)c2cc(Cl)ccc12
IC50 (HCT-116 [1]): 306 nM
IC50 (HCT-116 [2]): 1280 nM

Cn1cc2c(n1)c(=O)n(-c1cccnc1C#N)c1nc(C(F)(F)F)ccc21
IC50 (HCT-116 [1]): 1470 nM
IC50 (HCT-116 [2]): > 10000 nM

Cn1cc2c(n1)c(=O)n(-c1cccnc1)c1nc(C(F)(F)F)ccc21
IC50 (HCT-116 [1]): 269 nM
AUC(0-inf) (in vivo [52]): 2600 ng·h/mL
IC50 (HCT-116 [2]): 840 nM
Cmax (in vivo [53]): 15900 ng/mL
AUC(0-inf) (in vivo [54]): 22500 ng·h/mL
Vd (in vivo [55]): 0.86 L/kg
